# Tested on: gene expression in C. difficile 630Δerm
# Experiment: RNA-seq, genes differentially expressed in LL-37
compound,measurement,setting,value
CC[C@H](C)[C@H](NC(=O)[C@H](CCCCN)NC(=O)[C@H](CCC(=O)O)NC(=O)[C@H](CCCCN)NC(=O)[C@H](CO)NC(=O)[C@H](CCCCN)NC(=O)[C@H](CCCNC(=N)N)NC(=O)[C@H](Cc1ccccc1)NC(=O)[C@H](Cc1ccccc1)NC(=O)[C@H](CC(=O)O)NC(=O)CNC(=O)[C@H](CC(C)C)NC(=O)[C@@H](N)CC(C)C)C(=O)NCC(=O)N[C@@H](CCCCN)C(=O)N[C@@H](CCC(=O)O)C(=O)N[C@@H](Cc1ccccc1)C(=O)N[C@@H](CCCCN)C(=O)N[C@@H](CCCNC(=N)N)C(=O)N[C@H](C(=O)N[C@H](C(=O)N[C@@H](CCC(N)=O)C(=O)N[C@@H](CCCNC(=N)N)C(=O)N[C@H](C(=O)N[C@@H](CCCCN)C(=O)N[C@@H](CC(=O)O)C(=O)N[C@@H](Cc1ccccc1)C(=O)N[C@@H](CC(C)C)C(=O)N[C@@H](CCCNC(=N)N)C(=O)N[C@@H](CC(N)=O)C(=O)N[C@@H](CC(C)C)C(=O)N[C@H](C(=O)N1CCC[C@H]1C(=O)N[C@@H](CCCNC(=N)N)C(=O)N[C@H](C(=O)N[C@@H](CCC(=O)O)C(=O)N[C@@H](CO)C(=O)O)[C@@H](C)O)C(C)C)[C@@H](C)CC)C(C)C)[C@@H](C)CC [LL-37],CD630_18890 fold change in LL-37,"2 µg/ml LL-37, BHIS",4.54
same,CD630_18900 fold change in LL-37,"2 µg/ml LL-37, BHIS",3.60
same,CD630_19120 (eutA) fold change in LL-37,"2 µg/ml LL-37, BHIS",0.20
same,CD630_19150 (eutL) fold change in LL-37,"2 µg/ml LL-37, BHIS",0.21
same,CD630_19180 (eutK) fold change in LL-37,"2 µg/ml LL-37, BHIS",0.40
same,CD630_19210 fold change in LL-37,"2 µg/ml LL-37, BHIS",0.48
same,CD630_19220 (eutN) fold change in LL-37,"2 µg/ml LL-37, BHIS",0.25
same,CD630_19440 fold change in LL-37,"2 µg/ml LL-37, BHIS",2.03
same,CD630_19670 fold change in LL-37,"2 µg/ml LL-37, BHIS",2.01
same,CD630_20140 (ilvD) fold change in LL-37,"2 µg/ml LL-37, BHIS",2.90
same,CD630_20160 fold change in LL-37,"2 µg/ml LL-37, BHIS",0.26
same,CD630_20270 fold change in LL-37,"2 µg/ml LL-37, BHIS",2.69
same,CD630_20280 (racX) fold change in LL-37,"2 µg/ml LL-37, BHIS",2.39
same,CD630_20451 fold change in LL-37,"2 µg/ml LL-37, BHIS",0.46
same,CD630_20751 fold change in LL-37,"2 µg/ml LL-37, BHIS",2.21
same,CD630_20910 fold change in LL-37,"2 µg/ml LL-37, BHIS",2.49
same,CD630_21270 fold change in LL-37,"2 µg/ml LL-37, BHIS",2.34
same,CD630_21430 fold change in LL-37,"2 µg/ml LL-37, BHIS",0.48
same,CD630_21510 fold change in LL-37,"2 µg/ml LL-37, BHIS",0.48
same,CD630_21640 (ldh) fold change in LL-37,"2 µg/ml LL-37, BHIS",2.95
same,CD630_21710 fold change in LL-37,"2 µg/ml LL-37, BHIS",0.34
same,CD630_21930 (cwp24) fold change in LL-37,"2 µg/ml LL-37, BHIS",2.54
same,CD630_22010 fold change in LL-37,"2 µg/ml LL-37, BHIS",0.40
same,CD630_22330 (asrA) fold change in LL-37,"2 µg/ml LL-37, BHIS",2.43
same,CD630_23090 fold change in LL-37,"2 µg/ml LL-37, BHIS",2.29
same,CD630_23300 (xpt) fold change in LL-37,"2 µg/ml LL-37, BHIS",0.49
same,CD630_23310 (mtlD) fold change in LL-37,"2 µg/ml LL-37, BHIS",0.12
same,CD630_23320 (mtlF) fold change in LL-37,"2 µg/ml LL-37, BHIS",0.12
same,CD630_23330 (mtlR) fold change in LL-37,"2 µg/ml LL-37, BHIS",0.14
same,CD630_23340 (mtlA) fold change in LL-37,"2 µg/ml LL-37, BHIS",0.15
same,CD630_23380 (4hbD) fold change in LL-37,"2 µg/ml LL-37, BHIS",12.95
same,CD630_23390 (cat2) fold change in LL-37,"2 µg/ml LL-37, BHIS",13.27
same,CD630_23400 fold change in LL-37,"2 µg/ml LL-37, BHIS",13.14
same,CD630_23410 (abfD) fold change in LL-37,"2 µg/ml LL-37, BHIS",14.81
same,CD630_23420 (sucD) fold change in LL-37,"2 µg/ml LL-37, BHIS",12.71
same,CD630_23430 (cat1) fold change in LL-37,"2 µg/ml LL-37, BHIS",11.85
same,CD630_23440 fold change in LL-37,"2 µg/ml LL-37, BHIS",10.85
same,CD630_23700 (nadC) fold change in LL-37,"2 µg/ml LL-37, BHIS",0.42
same,CD630_23710 (nadB) fold change in LL-37,"2 µg/ml LL-37, BHIS",0.40
same,CD630_23720 (nadA) fold change in LL-37,"2 µg/ml LL-37, BHIS",0.40
same,CD630_23790 (buk2) fold change in LL-37,"2 µg/ml LL-37, BHIS",3.13
same,CD630_23800 (iorB) fold change in LL-37,"2 µg/ml LL-37, BHIS",10.81
same,CD630_23810 (iorA) fold change in LL-37,"2 µg/ml LL-37, BHIS",13.66
same,CD630_23820 fold change in LL-37,"2 µg/ml LL-37, BHIS",13.76
same,CD630_24291 fold change in LL-37,"2 µg/ml LL-37, BHIS",0.23
same,CD630_24610 (dnaK) fold change in LL-37,"2 µg/ml LL-37, BHIS",0.48
same,CD630_24620 (grpE) fold change in LL-37,"2 µg/ml LL-37, BHIS",0.41
same,CD630_24630 (hrcA) fold change in LL-37,"2 µg/ml LL-37, BHIS",0.49
same,CD630_25090 fold change in LL-37,"2 µg/ml LL-37, BHIS",0.40
same,CD630_25100 fold change in LL-37,"2 µg/ml LL-37, BHIS",0.48
same,CD630_25110 fold change in LL-37,"2 µg/ml LL-37, BHIS",0.48
same,CD630_25150 fold change in LL-37,"2 µg/ml LL-37, BHIS",0.38
same,CD630_25160 (ansB) fold change in LL-37,"2 µg/ml LL-37, BHIS",0.44
same,CD630_25171 fold change in LL-37,"2 µg/ml LL-37, BHIS",2.04
same,CD630_25560 fold change in LL-37,"2 µg/ml LL-37, BHIS",4.24
same,CD630_26140 fold change in LL-37,"2 µg/ml LL-37, BHIS",0.12
same,CD630_26640 (murE) fold change in LL-37,"2 µg/ml LL-37, BHIS",0.35
same,CD630_26650 fold change in LL-37,"2 µg/ml LL-37, BHIS",0.43
same,CD630_26691 fold change in LL-37,"2 µg/ml LL-37, BHIS",0.50
same,CD630_26700 fold change in LL-37,"2 µg/ml LL-37, BHIS",0.43
same,CD630_26710 fold change in LL-37,"2 µg/ml LL-37, BHIS",0.38
same,CD630_26820 (pfo) fold change in LL-37,"2 µg/ml LL-37, BHIS",2.03
same,CD630_26860 fold change in LL-37,"2 µg/ml LL-37, BHIS",0.41
same,CD630_26870 fold change in LL-37,"2 µg/ml LL-37, BHIS",0.46
same,CD630_27090 fold change in LL-37,"2 µg/ml LL-37, BHIS",2.37
same,CD630_27250 fold change in LL-37,"2 µg/ml LL-37, BHIS",2.07
same,CD630_27491 fold change in LL-37,"2 µg/ml LL-37, BHIS",0.38
same,CD630_27500 (agrB) fold change in LL-37,"2 µg/ml LL-37, BHIS",0.49
same,CD630_27640 fold change in LL-37,"2 µg/ml LL-37, BHIS",0.38
same,CD630_27840 (cwp6) fold change in LL-37,"2 µg/ml LL-37, BHIS",2.30
same,CD630_27880 fold change in LL-37,"2 µg/ml LL-37, BHIS",0.48
same,CD630_28770 (fhuB) fold change in LL-37,"2 µg/ml LL-37, BHIS",0.35
same,CD630_28780 (fhuD) fold change in LL-37,"2 µg/ml LL-37, BHIS",0.30
same,CD630_29320 fold change in LL-37,"2 µg/ml LL-37, BHIS",0.30
same,CD630_29330 fold change in LL-37,"2 µg/ml LL-37, BHIS",0.50
same,CD630_29341 fold change in LL-37,"2 µg/ml LL-37, BHIS",0.29
same,CD630_29360 fold change in LL-37,"2 µg/ml LL-37, BHIS",0.44
same,CD630_29400 fold change in LL-37,"2 µg/ml LL-37, BHIS",0.42
same,CD630_29420 fold change in LL-37,"2 µg/ml LL-37, BHIS",0.41
same,CD630_29430 fold change in LL-37,"2 µg/ml LL-37, BHIS",0.45
same,CD630_29440 fold change in LL-37,"2 µg/ml LL-37, BHIS",0.44
same,CD630_29470 fold change in LL-37,"2 µg/ml LL-37, BHIS",0.30
same,CD630_29490 fold change in LL-37,"2 µg/ml LL-37, BHIS",0.46
same,CD630_29620 fold change in LL-37,"2 µg/ml LL-37, BHIS",2.13
same,CD630_29710 (bioY) fold change in LL-37,"2 µg/ml LL-37, BHIS",0.45
same,CD630_30250 fold change in LL-37,"2 µg/ml LL-37, BHIS",0.47
same,CD630_30260 fold change in LL-37,"2 µg/ml LL-37, BHIS",0.45
same,CD630_30270 fold change in LL-37,"2 µg/ml LL-37, BHIS",0.25
same,CD630_30340 fold change in LL-37,"2 µg/ml LL-37, BHIS",0.38
same,CD630_30360 fold change in LL-37,"2 µg/ml LL-37, BHIS",0.39
same,CD630_30720 fold change in LL-37,"2 µg/ml LL-37, BHIS",0.41
same,CD630_30990 fold change in LL-37,"2 µg/ml LL-37, BHIS",0.40
same,CD630_31000 fold change in LL-37,"2 µg/ml LL-37, BHIS",0.36
same,CD630_31150 (bglA4) fold change in LL-37,"2 µg/ml LL-37, BHIS",0.37
same,CD630_31360 (bglA7) fold change in LL-37,"2 µg/ml LL-37, BHIS",0.35
same,CD630_31370 (bglF5) fold change in LL-37,"2 µg/ml LL-37, BHIS",0.39
same,CD630_31750 (cggR) fold change in LL-37,"2 µg/ml LL-37, BHIS",0.22
same,CD630_32090 fold change in LL-37,"2 µg/ml LL-37, BHIS",0.47
same,CD630_32100 fold change in LL-37,"2 µg/ml LL-37, BHIS",0.48
same,CD630_32220 (sdaB) fold change in LL-37,"2 µg/ml LL-37, BHIS",0.49
same,CD630_32570 fold change in LL-37,"2 µg/ml LL-37, BHIS",0.37
same,CD630_32600 (phoU) fold change in LL-37,"2 µg/ml LL-37, BHIS",0.49
same,CD630_32620 (pstA) fold change in LL-37,"2 µg/ml LL-37, BHIS",0.48
same,CD630_33440 fold change in LL-37,"2 µg/ml LL-37, BHIS",0.39
same,CD630_33730 (mgtA) fold change in LL-37,"2 µg/ml LL-37, BHIS",3.39
same,CD630_33740 fold change in LL-37,"2 µg/ml LL-37, BHIS",3.92
same,CD630_33750 (mgtC) fold change in LL-37,"2 µg/ml LL-37, BHIS",2.96
same,CD630_33790 fold change in LL-37,"2 µg/ml LL-37, BHIS",2.14
same,CD630_33911 fold change in LL-37,"2 µg/ml LL-37, BHIS",2.66
same,CD630_35370 (phnH) fold change in LL-37,"2 µg/ml LL-37, BHIS",0.39
same,CD630_36010 fold change in LL-37,"2 µg/ml LL-37, BHIS",0.35
same,CD630_22290 fold change in LL-37,"2 µg/ml LL-37, BHIS (Table S5)",0.51
same,genes induced,"sub-MIC LL-37, at least 2-fold, p < 0.05",107 genes
same,genes differentially expressed at least 2-fold,"sub-MIC LL-37, p < 0.05",228 genes
